Experimental data from article PMC5701182, “The Aβ oligomer eliminating D-enantiomeric peptide RD2 improves cognition without changing plaque pathology” (Scientific Reports, 2017).
pIC50: −log10 of the molar value. Non-standard residues stand in square brackets, D forms with d. Residues, ends and D or L forms follow the SMILES beside them.

Assays:
[1] = previous pharmacokinetic studies of D3 and RD2; cited from earlier work
Text: Nowadays, the inhibition of the formation of Aβ oligomers and the elimination of already present Aβ oligomers is thought to be one of the most promising strategies to modify disease progression according to the modified amyloid cascade hypothesis. Currently registered drugs can only ameliorate symptoms and cannot slow down disease progression. Previously, we have reported about a D-enantiomeric peptide, named “D3”, which was identified by mirror image phage display and solely consists of D-enantiomeric amino acid residues[21],[22]. D3 inhibits the formation of regular Aβ fibrils, eliminates di ...

[2] = system: APP/PS1 mice; assay: Zero maze; assay type: in vivo, mouse; conditions: APP/PS1 mice after three weeks of 5.3 mg/kg/day RD2 i.p., mean ± SEM, placebo 5.0 ± 0.6
Description: (§1) In this study, we treated seven months old female APP/PS1 mice intraperitoneally by use of Alzet osmotic minipumps (Alzet osmotic mini pumps, model #1004, Alzet, USA). Mice were either treated with 5.3 mg/kg/day RD2 (n = 11) or placebo (0.9% sodium chloride solution) (n = 10) as control group. The Alzet minipumps were soaked in sterile 0.9% sodium chloride solution for 24 h before implantation. The next day, the pumps were filled with the appropriate solution and implanted intraperitoneally. In short, mice were anesthetised with isoflurane, the skin and the muscle layer below were cut in the midline and the pump was inserted in the abdominal cavity. Following placement of the pump, the wound was sutured. Three weeks after the implantations, the mice were tested in different behavioural set ups. 28 days after the implantations, the mice were sacrificed for histopathological analysis. All mice of both groups were included in the experiments described below.
Similar to the open field test, the zero maze was used to assess the anxiety behaviour of the mice. The maze consisted of a circular arena (65 cm diameter) that is raised 40 cm above the table. The maze was separated into four equal parts, with two parts with 15 cm high walls of opaque material and two only 0.5 cm high walls. […] Analysed was the time mice spent in the open and closed arms. […]

[3] = system: SH-SY5Y cells; assay: MTT cell viability assay, SH-SY5Y cells; assay type: cell-based, human; conditions: 5 µM RD2 without Aβ, one-way ANOVA n.s., p = 0.4
Description: (§2) MTT (3-(4,5-Dimethylthiazol-2-yl)-2,5-diphenyl-tetrazolium bromide) based cell viability assays were accomplished to examine the cytotoxicity of Aβ(1-42) in the presence of RD2 on two different cell lines, PC-12 (rat pheochromocytoma cell line), and SH-SY5Y (human neuroblastoma cell line) cells.
(§3) PC-12 cells (DSMZ, Germany) were cultured in DMEM medium supplemented with 10% fetal calf serum, 1% antibiotics (Penicillin/Streptomycin) (all Sigma-Aldrich, USA), and 5% horse serum (PAA Laboratories GmbH, Germany) on collagen A-coated (Biochrom GmbH, Germany) tissue culture flasks (SPL Life Sciences Co., Korea). SH-SY5Y cells (DSMZ, Germany) were cultured in DMEM medium supplemented with 20% fetal calf serum and 1% antibiotics (Penicillin/Streptomycin) (all Sigma-Aldrich, USA) on tissue culture flasks (SPL Life Sciences Co., Korea). Cells were allowed to grow in a humidified incubator with 5% CO2 at 37 °C and a maximum of 12 (PC-12 cells) or 21 (SH-SY5Y cells) passages. Medium was changed every two days and cells were passaged every three to five days, according to their confluence.
(§4) MTT test was performed according to the manufacturer’s protocol (CellProliferation Kit I; Roche, Switzerland). […] The arithmetic mean of all measurements per approach was calculated. Results are represented as the percentage of MTT reduction, assuming that the absorbance of control cells was 100%.

[4] = system: APP/PS1 mice; assay: Open field test; assay type: in vivo, mouse; conditions: APP/PS1 mice after three weeks of 5.3 mg/kg/day RD2 i.p.
Description: as §1
The open field test was performed to evaluate the activity and anxiety behaviour of the mice. The arena (42 cm × 42 cm surrounded with clear Plexiglass sides (20 cm high)) was subdivided into two areas: border and centre. […] Time spent in both areas was analysed. After each testing day and in between the mice, the apparatus was wiped out with chlorhexidine and 70% ethanol and allowed to air-dry.

[5] = system: APP/PS1 mice; assay: Morris water maze; assay type: in vivo, mouse; conditions: 5.3 mg/kg/day RD2 i.p., placebo 19.0 ± 1 cm/s
Description: as §1
The mice were tested daily for one week in a water maze. Our version of the Morris water maze consists of a blue circular tank (120 cm diameter) filled with clear water (22 °C ± 1 °C). […] Mice were recorded with a camera driven tracker system (Ethovision XT10, Noldus, The Netherlands). It was analysed the time the mice needed to escape to the hidden platform (escape latency) and the time they spent in the target quadrant (probe trial).

[6] = system: APP/PS1 mice; assay: Body weight and general health during intraperitoneal minipump treatment; assay type: in vivo, mouse; conditions: female APP/PS1 mice, 5.3 mg/kg/day RD2 i.p. by Alzet minipump
Description: For this study, 21 APP/PS1 double transgenic mice (APPSwedish/PS1ΔE9)[36] were used. The very well characterized APP/PS1 mouse model develops cognition deficits and abundant Aβ deposits already at early age. The original mice were purchased from JAX (The Jackson Laboratory, USA) and maintained in our own colony at the University of Alabama in Birmingham. Before treatment, the mice were housed in a controlled environment (humidity 50–60%, temperature 22 °C, light from 06:00 a.m. to 6:00 p.m.) with 4 animals per cage in our facility with food and water available ad libitum. After the implantation of the Alzet minipumps the mice were housed individually.
as §1, with “Three weeks after the implantations, the mice were tested in different behavioural set ups. 28 days after the implantations, the mice were sacrificed for histopathological analysis. All mice of both groups were included in the experiments described below.” left out

[7] = system: PC-12 cells; assay: MTT cell viability assay, PC-12 cells; assay type: cell-based, rat; conditions: 5 µM RD2 without Aβ, one-way ANOVA n.s., p = 0.4
Description: as §2, §3, §4

[8] = target: T1, Aβ(1-42) fibril formation (Homo sapiens, UniProt P05067); assay: Thioflavin T (ThT) fibril formation assay; assay type: biochemical; conditions: 20 µM Aβ(1-42), 5 µM ThT, RD2 80-1.25 µM, 21 h, 37 °C; logistic fit; three replicates; read-out: IC50 of inhibition of Aβ(1-42) fibril formation
T1 construct: Synthetic and recombinant Aβ(1-42) with >95% purity was purchased as lyophilized powder; purchased Bachem (Germany) (synthetic) / Isoloid (Germany) (recombinant)
Description: The Thioflavin T (ThT) assay is a commonly used assay to visualize and quantify the fibrilisation of Aβ, since this dye binds to amyloidogenic cross-β-sheet structures. While Aβ aggregates into fibrils, the ThT fluorescence intensities increase until a saturation level is accomplished. Within this test, we analysed the inhibitory function of RD2 on the Aβ(1-42) fibril formation. 20 µM Aβ(1-42) was incubated with 5 µM ThT and different concentrations of RD2 (serial dilution from 80 µM till 1.25 µM) for IC50 calculation. ThT fluorescence was monitored over 21 h every 5 min at λex = 440 nm and λem = 490 nm in a fluorescence plate reader (Polarstar Optima, Germany) at 37 °C. Correction was done using all supplements without Aβ. For data evaluation, the fibril masses were determined by subtracting the baseline fluorescence intensities from the top and normalised to the Aβ control to calculate the inhibition in percent. The IC50 resulted from the compound concentration at the inflection point obtained by a logistic fit of the data (OriginPro 8.5 G, OriginLab, USA).

[9] = target: T2, Aβ(1-42) oligomers (Homo sapiens, UniProt P05067); assay: QIAD assay (quantitative determination of interference with Aβ aggregate size distribution); assay type: biochemical
T2 construct: Synthetic and recombinant Aβ(1-42) with >95% purity was purchased as lyophilized powder; purchased Bachem (Germany) (synthetic) / Isoloid (Germany) (recombinant)
Description: For the evaluation of Aβ oligomer elimination of RD2, a QIAD assay (quantitative determination of interference with Aβ aggregate size distribution) was performed according to Brener et al.[23]. Briefly, 80 µM Aβ(1-42) was pre-incubated for 4.5 h to enrich Aβ oligomers. Then either RD2 or D3 were added to the pre-incubated solution with the resulting concentration of 20 µM RD2 or D3 and co-incubated for further 40 min. The samples were loaded on top of a density gradient containing 5 to 50% (w/v) iodixanol (OptiPrep, Axis-Shield, Norway) and centrifuged for 3 h at 4 °C and 259.000 × g (Optima TL-100, Beckman Coulter, USA). After centrifugation, 14 fractions à 140 μl were harvested by upward displacement. Fraction 1 from the top of the gradient was the least dense fraction while fraction 14 from just above the bottom was the densest fraction. The pellet of each tube was mixed with 60 µl of a 6 M guanidine hydrochloride solution and boiled for 10 min. The resulting solution represents fraction 15. All fractions were analysed with respect to their Aβ(1-42) content by analytical RP-HPLC (reversed phase-high performance liquid chromatography) and UV absorbance detection at 214 nm. The data for the D3 values and the Aβ(1-42) controls without compounds were already previously used in Brener et al.[23]. Analyses were done at least in quadruplicates (D3 and RD2 n = 4, Aβ(1-42) n = 11). […]

T2 sequence (P05067 672-713 limits assumed): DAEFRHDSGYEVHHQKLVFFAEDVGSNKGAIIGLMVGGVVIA
T1 sequence (P05067 672-713 limits assumed): as above

average speed of movement in the zero maze [2]: 4.8 ± 0.4 cm/s
speed in the open field ([4]; mean ± SEM, placebo 8.9 ± 0.9 cm/s, SEM): 8.8 ± 0.7 cm/s
swimming speed in the Morris water maze [5]: 18.8 ± 1 cm/s
pIC50 [8]: 5.11
reduction of the amount of Aβ oligomers in fractions 4 to 6 ([9]; 20 µM RD2 added to 80 µM Aβ(1-42) pre-incubated 4.5 h, co-incubated 40 min, density gradient centrifugation, RP-HPLC UV 214 nm, n = 4): 71%
pIC50 ([9]; QIAD with pooled fractions 4 to 6, 1-40 µM RD2 on 80 µM Aβ(1-42), logistic fit, n = 3, read-out: IC50 of Aβ(1-42) oligomer elimination): 5.08
Compound: CC(C)C[C@@H](NC(=O)[C@H](NC(=O)[C@H]1CCCN1)[C@H](C)O)C(=O)N[C@H](Cc1c[nH]cn1)C(=O)N[C@@H](C(=O)N[C@H](Cc1c[nH]cn1)C(=O)N[C@H](CC(N)=O)C(=O)N[C@H](CCCNC(=N)N)C(=O)N[C@H](CCCNC(=N)N)C(=O)N[C@H](CCCNC(=N)N)C(=O)N[C@H](CCCNC(=N)N)C(=O)N[C@H](CCCNC(=N)N)C(N)=O)[C@H](C)O [RD2] (H-[dP][dT][dL][dH][dT][dH][dN][dR][dR][dR][dR][dR]-NH2)
bioavailability of RD2 compared to D3 [1]: higher bioavailability
cell viability with RD2 alone compared to buffer control [3]: did not result in any change of cell viability
activity or anxiety levels versus placebo ([4]; open field and zero maze tests): no significant differences in activity or anxiety levels
physiological parameters, general health and discomfort ([6]; 28 days): neither changed any obvious physiological parameters
body weight ([6]; n = 11, placebo 25.7 ± 0.9 g, mean ± SEM, SEM): 26.8 ± 0.8 g
cell viability with RD2 alone compared to buffer control [7]: did not result in any change of cell viability
